Results as given in patent US12508241B2, “Peripheral nerve agonists suppress inflammation” (University of Pittsburgh—Of the Commonwealth System of …, priority 2019, dated 2025).

Legend:
[1] = test system: wound healing pathways; conditions: 100 mM injected twice daily for 2 days, WT C57BL/6; compared with published tape stripping RNAseq data
Method: Wild type C57BL/6 mice were injected with 100 mM β-alanine or vehicle twice daily for 2 days. Skin at the treated sites were harvested and mRNA was obtained and subjected to RNAseq. Genes with increased gene expression in the β-alanine treated group were anayzed by pathway analysis.

[2] = test system: mast cell degranulation; assay: 48/80-mediated mast cell degranulation, Evan's blue dye in the skin, i.d. β-alanine pre-treatment; type: in vivo, C57BL/6 mice
Method: Compound 48/80, the condensation product of N-methyl p-methoxyphenethylamine and formaldehyde, is a well-known chemical that induces rapid mast cell degranulation and associated edema. The degree of edema in the skin is measured by the amount of Evan's blue dye in the skin. […] In mice that lack MRGPRD neurons, β-alanine had no effect on 48/80's ability to activate mast cells (compare columns 5 and 6). This is a specificity control since the neurons that express the receptor for β-alanine are absent.

[3] = test system: DNFB contact hypersensitivity; conditions: MRGPRD-DTR mice treated with DT (MRGPRD-ablated), same regimen
Method: Referring to FIG. 2, cohorts of C57BL/6 mice (n=5) were either pre-treated by i.d. injection of b-alanine (WT+b-ala) or vehicle (WT) on the abdomen for 2 days followed by sensitization at the same site with 0.2% DNFB (a chemical sensitizer). Five days later 0.2% DNFB was applied to the ear. The increased degree of ear swelling on the indicated day compared to ear thickness prior to application of DNFB was measured. Increased ear thickness was employed a surrogate for the amount of immune response to DNFB was measured. As a specificity control, MRGPRD-DTR mice treated with DT to ablate MRGPRD-expressing neurons (labeled MRGPRD in FIG. DD), and were treated similarly (MRGPRD and MRGPRD+b-ala).

[4] = biological target: MRGPRD (Homo sapiens, UniProt Q8TDS7); conditions: cited from earlier work; for activity as MRGPRD agonists relative to β-ala: compared with β-ala
[5] = test system: mast cell degranulation; conditions: 5% topical, shaved flank skin twice daily for 2 days, then i.d. compound 48/80, read ten minutes later; figure values in μg per g of tissue, p<0.01
Method: Mice were then given Evans' blue dye i.v. followed by an intradermal injection of compound 48/80. Ten minutes later, the amount of Evans' blue dye present in the skin (μg·g^−1 of tissue) as an indication of the extent of mast cell degranulation was determined by skin biopsy, enzymatic digestion, and […] evaluation.

Sequence of MRGPRD (Q8TDS7 whole entry): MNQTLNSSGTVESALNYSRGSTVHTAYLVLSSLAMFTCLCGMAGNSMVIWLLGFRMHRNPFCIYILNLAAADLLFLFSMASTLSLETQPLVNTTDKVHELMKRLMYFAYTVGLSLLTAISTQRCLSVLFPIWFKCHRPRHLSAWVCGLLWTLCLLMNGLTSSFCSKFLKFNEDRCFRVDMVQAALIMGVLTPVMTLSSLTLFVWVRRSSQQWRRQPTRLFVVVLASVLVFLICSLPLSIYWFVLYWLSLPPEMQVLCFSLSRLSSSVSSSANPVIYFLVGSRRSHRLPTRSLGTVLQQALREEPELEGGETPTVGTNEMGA

Row | SMILES | pathways activated in skin (RNAseq pathway analysis) [1] | Evan's blue dye in the skin (edema, mast cell degranulation) after compound 48/80 ([2]; C57BL/6 mice, i.d. pre-treatment for 2 days, then i.d. compound 48/80, FIG. 1 columns 3 and 4) | Evan's blue dye in the skin (48/80's ability to activate mast cells) ([2]; mice that lack MRGPRD neurons (specificity control), FIG. 1 columns 5 and 6) | cutaneous mast cell function ([2]; wild-type mice (summary statement of Example 1)) | ear swelling (immune response to DNFB) [3] | forskolin-stimulated cAMP production ([4]; cells expressing MRGPRD) | mast cell degranulation (dermal Evan's blue dye) [5] | activity as MRGPRD agonists relative to β-ala [4]
1 | NCCC(=O)O [β-alanine, 3-aminopropanoic acid] | activates wound healing pathways | inhibited this effect | no effect | sufficient to suppress | no effect | decreases | suppresses | –
2 | CC(CN)C(=O)O (stereo not drawn) [β-AIBA, 3-aminoisobutyric acid] | – | – | – | – | – | – | – | significantly weaker
3 | NCCCC(=O)O [GABA, 4-aminobutanoic acid] | – | – | – | – | – | – | – | significantly weaker
